The values below are quoted from earlier work in US20050003003A1, “Modulation of release from dry powder formulations” (Advanced Inhalation Research, Inc., priority 1999, published 2005).

The conditions of the data set: for transition temperature (Tc): bulk hydrated state; for theoretical transition: phospholipid of the formulation.
The mark [1] stands for this setting: Table 1, phospholipids with low transition temperatures.
Where [2] appears, read: Table 2, phospholipids with high transition temperatures.

Read-outs that look alike come from different tables or passages of the source.

`CCCCCCCCCCCCCC(=O)OC[C@H](COP(=O)(O)OCC(O)CO)OC(=O)CCCCCCCCCCCCC` (mixture of isomers) [DMPG, 1,2-Dimyristoyl-sn-glycero-3-[phospho-rac-(1-glycerol)]]: the “Transition Temperature” value under setting [1] was 23 °C. Consider `CCCCCCCCCCCCCCCC(=O)OC[C@H](COP(=O)(O)OCC(O)CO)OC(=O)CCCCCCCCCCCCCCC` (mixture of isomers) [DPPG, 1,2-Dipalmitoyl-sn-glycero-3-[phospho-rac-(1-glycerol)]], for which the “Transition Temperature” value under setting [1] was 41 °C. Take `CCCCCCCCCCCCCCCCCC(=O)OCC(COP(=O)(O)OCC(O)CO)OC(=O)CCCCCCCCCCCCCCCCC` (racemic) [DSPG, 1,2-Distearoyl-sn-glycero-3-[phospho-rac-(1-glycerol)]]: the “Transition Temperature” value under setting [2] is 55 °C. `CCCCCCCCCCCCCCCCC(=O)OC[C@H](COP(=O)([O-])OCC[N+](C)(C)C)OC(=O)CCCCCCCCCCCCCCCC` [1,2-Diheptadecanoyl-sn-glycero-3-phosphocholine]: the “Transition Temperature” value under setting [2] is 48 °C. Turning to `CCCCCCCCCCCCCC(=O)OC[C@H](COP(=O)(O)OC[C@H](N)C(=O)O)OC(=O)CCCCCCCCCCCCC` [1,2-Dimyristoyl-sn-glycero-3-[phospho-L-serine]], the “Transition Temperature” value under setting [1] was 35 °C. Regarding `CCCCCCCCCCCCCCCC(=O)OC[C@H](COP(=O)(O)OC[C@H](N)C(=O)O)OC(=O)CCCCCCCCCCCCCCC` [1,2-Dipalmitoyl-sn-glycero-3-[phospho-L-serine]], the “Transition Temperature” value under setting [2] is 54 °C. For `CCCCCCCCCCCCCCC(=O)OC[C@H](COP(=O)([O-])OCC[N+](C)(C)C)OC(=O)CCCCCCCCCCCCCC` [1,2-Dipentadecanoyl-sn-glycero-3-phosphocholine], the “Transition Temperature” value under setting [1] was 33 °C.

Take `CCCCCCCCCCCCCCCCCC(=O)OC[C@H](COP(=O)(O)OC[C@H](N)C(=O)O)OC(=O)CCCCCCCCCCCCCCCCC` [1,2-Distearoyl-sn-glycero-3-[phospho-L-serine]]: the “Transition Temperature” value under setting [2] was 68 °C. Turning to `CCCCCCCCCCCCC(=O)OC[C@H](COP(=O)([O-])OCC[N+](C)(C)C)OC(=O)CCCCCCCCCCCC` [1,2-Ditridecanoyl-sn-glycero-3-phosphocholine], the “Transition Temperature” value under setting [1] was 14 °C.

Turning to `CCCCCCCCCCCCCCCC(=O)O[C@H](COC(=O)CCCCCCCCCCCCC)COP(=O)([O-])OCC[N+](C)(C)C` [1-Myristoyl-2-palmitoyl-sn-glycero-3-phosphocholine], the “Transition Temperature” value under setting [1] is 35 °C. Turning to `CCCCCCCCCCCCCCCCCC(=O)O[C@H](COC(=O)CCCCCCCCCCCCC)COP(=O)([O-])OCC[N+](C)(C)C` [1-Myristoyl-2-stearoyl-sn-glycero-3-phosphocholine], the “Transition Temperature” value under setting [1] was 40 °C.

As to `CCCCCCCCCCCCCCCC(=O)OC[C@H](COP(=O)([O-])OCC[N+](C)(C)C)OC(=O)CCCCCCCCCCCCC` [1-Palmitoyl-2-myristoyl-sn-glycero-3-phosphocholine], under setting [1], the “Transition Temperature” value is 27 °C. As to `CCCCCCCCCCCCCCCCCC(=O)O[C@H](COC(=O)CCCCCCCCCCCCCCC)COP(=O)([O-])OCC[N+](C)(C)C` [1-Palmitoyl-2-stearoyl-sn-glycero-3-phosphocholine], under setting [2], the “Transition Temperature” value is 49 °C. For the compound `CCCCCCCCCCCCCCCCCC(=O)OC[C@H](COP(=O)([O-])OCC[N+](C)(C)C)OC(=O)CCCCCCCCCCCCC` [1-Stearoyl-2-myristoyl-sn-glycero-3-phosphocholine], the “Transition Temperature” value under setting [1] was 30 °C.

Regarding `CCCCCCCCCCCC(=O)OC[C@H](COP(=O)(O)O)OC(=O)CCCCCCCCCCC` [DLPA, 1,2-Dilauroyl-sn-glycero-3-phosphate], under setting [1], the “Transition Temperature” value is 31 °C. For `CCCCCCCCCCCC(=O)OC[C@H](COP(=O)([O-])OCC[N+](C)(C)C)OC(=O)CCCCCCCCCCC` [DLPC, 1,2-Dilauroyl-sn-glycero-3-phosphocholine], the “Transition Temperature” value under setting [1] was −1 °C. With `CCCCCCCCCCCC(=O)OC[C@H](COP(=O)(O)OCCN)OC(=O)CCCCCCCCCCC` [DLPE, 1,2-Dilauroyl-sn-glycero-3-phosphoethanolamine], the “Transition Temperature” value under setting [1] is 29 °C.

With `CCCCCCCCCCCCCC(=O)OC[C@H](COP(=O)(O)O)OC(=O)CCCCCCCCCCCCC` [DMPA, 1,2-Dimyristoyl-sn-glycero-3-phosphate], under setting [2], the “Transition Temperature” value is 50 °C. Regarding `CCCCCCCCCCCCCC(=O)OC[C@H](COP(=O)([O-])OCC[N+](C)(C)C)OC(=O)CCCCCCCCCCCCC` [DMPC, 1,2-Dimyristoyl-sn-glycero-3-phosphocholine], under setting [1], the “Transition Temperature” value is 23 °C. As for `CCCCCCCCCCCCCC(=O)OC[C@H](COP(=O)(O)OCCN)OC(=O)CCCCCCCCCCCCC` [DMPE, 1,2-Dimyristoyl-sn-glycero-3-phosphoethanolamine], the “Transition Temperature” value under setting [2] was 50 °C. Regarding `CCCCCCCCCCCCCCCC(=O)OC[C@H](COP(=O)(O)O)OC(=O)CCCCCCCCCCCCCCC` [DPPA, 1,2-Dipalmitoyl-sn-glycero-3-phosphate], under setting [2], the “Transition Temperature” value is 67 °C. Consider `CCCCCCCCCCCCCCCC(=O)OC[C@H](COP(=O)([O-])OCC[N+](C)(C)C)OC(=O)CCCCCCCCCCCCCCC` [DPPC, 1,2-Dipalmitoyl-sn-glycero-3-phosphocholine], for which the “transition temperature (Tc)” value is “approximately 41 °C” and the theoretical transition was 41 °C. For the same compound, the “Transition Temperature” value under setting [1] was 41 °C. With `CCCCCCCCCCCCCCCC(=O)OC[C@H](COP(=O)(O)OCCN)OC(=O)CCCCCCCCCCCCCCC` [DPPE, 1,2-Dipalmitoyl-sn-glycero-3-phosphoethanolamine], the “transition temperature (Tc)” value is “approximately 63 °C”. Moreover, under setting [2], the “Transition Temperature” value is 63 °C. Turning to `CCCCCCCCCCCCCCCCCC(=O)OC[C@H](COP(=O)([O-])OCC[N+](C)(C)C)OC(=O)CCCCCCCCCCCCCCCCC` [DSPC, 1,2-Distearoyl-sn-glycero-3-phosphocholine], the “transition temperature (Tc)” value is “approximately 55 °C” and the theoretical transition was 55 °C. The “Transition Temperature” value under setting [2] is 55 °C. As to `CCCCCCCCCCCCCCCCCC(=O)OC[C@H](COP(=O)(O)OCCN)OC(=O)CCCCCCCCCCCCCCCCC` [DSPE, 1,2-Distearoyl-sn-glycero-3-phosphoethanolamine], under setting [2], the “Transition Temperature” value was 74 °C.
